# Legend:
# Colo205 cell = test: Proliferation inhibition on Colo205 (CCK8); assay type: cell-based; settings: Homo sapiens, COLO 205, Colo205, 72 hours
# Text: Cell line used in the assay: Colo205 (Cell Bank of the Chinese Academy of Sciences, Catalog No. TCHu102).
# The following in vitro cell assay is to determine the activity of the compounds of the present invention for inhibiting the proliferation of human colon cancer cell, and the activity is expressed as IC50. General programs of this kind of assay were as follows: First, the cell line to be tested (purchased from Cell Bank of the Chinese Academy of Sciences) was inoculated in a 96-well culture plate with a suitable cell concentration of 4000 cells/mL medium, and was cultured in a carbon dioxide incubator at 37° C., then grown overnight. The medium was replaced by new medium added with a series of concentrations (10000 nM, 1000 nM, 100 nM, 10 nM, 1 nM, 0.1 nM) of the test compound solutions. The plates were placed back in the incubator, and continuously cultured for 72 hours. After 72 hours, CCK8 (Cell Counting Kit-8, Catalog No.: CK04, purchased from colleagues chemical company) method was used to determine the proliferation inhibition activity of the test compounds. IC50 values were calculated from the inhibition data of the test compounds at a series of different concentrations.
# The above assay was used to determine the biochemical activity of the compounds of the present invention.
# [1] = molecular target: T1, MEK1 (Recombinant Human Protein) (Homo sapiens, UniProt Q02750); test: MEK1 kinase inhibition assay (Z'-LYTE Kinase Assay Kit-Ser/Thr 03 Peptide); assay type: biochemical; settings: 4 hours at 37° C, read-out: IC50 for inhibiting MEK kinase (MEK1)
# T1 construct: purchased Invitrogen PV3093
# Description: MEK1 kinase activity was tested in vitro by the following method.
# MEK kinase used in the assay: MEK1 (Recombinant Human Protein, Invitrogen, Catalog No. PV3093).
# Kit used in the assay: Z′-LYTE™ Kinase Assay Kit-Ser/Thr 03 Peptide (Invitrogen, Catalog No. PV3176).
# The following in vitro assay was used to determine the activity of the compounds of the present invention for inhibiting the […] MEK kinase. The test compound was dissolved in dimethyl sulfoxide to the desired concentration. 1× Buffer A (Invitrogen, Catalog No. PV3189) was prepared, ATP was diluted with 1× Buffer A to obtain 400 μM ATP solution, appropriate amounts of Z′-LYTE™ Ser/Thr 03 Peptide (Invitrogen, Catalog No. PV3200), MEK kinase (MEK1) Enzymes and 1× Buffer A were mixed, and appropriate amounts of Z′-LYTE™ Ser/Thr 03 phosphoPeptide substrate (Invitrogen, Catalog No. PV3215) and 1× Buffer A were formulated into a mixture to be tested. The 4% DMSO solution of the test compound was prepared from 1× buffer and DMSO solution of the test compound. 2.5 μL DMSO solution of the test compound was added to a reaction well, and then 1× Buffer A, 2.5 μL of 400 μM ATP solution, 5 μL of enzyme and substrate mixture were added to become a 10 μL of reaction system. The reaction system was incubated for 4 hours at 37° C., and a mixture was prepared according to Reagent A:Buffer B=1:1024. 5 μL of a mixture of Reagent A (Invitrogen, Catalog No. PV3295) and Buffer B (Invitrogen, Catalog No. P3127) was added to a reaction well, the reaction system was incubated for 60 minutes at 25° C. The fluorescence was read by a NovoStar ELISA with excitation wavelength: 400 nm, and emission wavelength: 445 nm and 520 nm.
# The activity of the compounds of the present invention: The above assay was used to determine the biochemical activity of the compounds of the present invention for inhibiting MEK kinase (MEK1).
# CYP2C9 = molecular target: T2, CYP2C9 (Homo sapiens, UniProt P11712); test: In vitro CYP enzyme inhibition, human liver microsomes; assay type: in vitro ADME; settings: probe Diclofenac, single point method
# T2 construct: from tissue; host or cells: human liver microsomes
# Description: (§1) Human liver microsome incubation system was used to reflect the activity of enzymes based on the amount of metabolites produced. Enzyme inhibition of the test compounds was investigated on CYP1A2, CYP2C9, […], CYP3A4m, CYP3A4t and CYP2C19, and IC50 values (a concentration of the test compound that is required for 50% inhibition of enzyme activity) were measured. […] The appropriate amount of test compound standard sample was weighed, and diluted with DMSO to 50 mM to obtain stock solution I. The stock solution I was diluted with PBS to 100 μM to obtain the reaction liquid which is to be used in incubation. [table] The reaction mixture was prepared: 60 μL [table] The above mixture was preincubated for 5 minutes at 37° C., followed by addition of 40 μL of NADPH (2.5 mM, PBS formulation). The mixture solution was incubated for 20 minutes at 37° C. All incubated samples were set to double samples. 300 μL ice-cold acetonitrile was added to terminate the reaction. The reaction solution was added with 100 μl internal standard, mixed uniformly, and centrifuged for 10 minutes at 3500 rpm. The supernatant was transferred to the LC-MS/MS analysis. The activity of enzymes was reflected by the production amount of metabolites. Using a single point method, the formula was calculated as follows: According to the known literature: IC50>10 μM belongs to weaker inhibition, 1 μM<IC50<10 μM belong to moderate inhibition, IC50<1 μM belong to strong inhibition.
# CYP1A2 = molecular target: T3, CYP1A2 (Homo sapiens, UniProt P05177); test: as above; assay type: in vitro ADME; settings: probe Phenacetin, single point method
# T3 construct: from tissue; host or cells: human liver microsomes
# T3 sequence (P05177 1-516): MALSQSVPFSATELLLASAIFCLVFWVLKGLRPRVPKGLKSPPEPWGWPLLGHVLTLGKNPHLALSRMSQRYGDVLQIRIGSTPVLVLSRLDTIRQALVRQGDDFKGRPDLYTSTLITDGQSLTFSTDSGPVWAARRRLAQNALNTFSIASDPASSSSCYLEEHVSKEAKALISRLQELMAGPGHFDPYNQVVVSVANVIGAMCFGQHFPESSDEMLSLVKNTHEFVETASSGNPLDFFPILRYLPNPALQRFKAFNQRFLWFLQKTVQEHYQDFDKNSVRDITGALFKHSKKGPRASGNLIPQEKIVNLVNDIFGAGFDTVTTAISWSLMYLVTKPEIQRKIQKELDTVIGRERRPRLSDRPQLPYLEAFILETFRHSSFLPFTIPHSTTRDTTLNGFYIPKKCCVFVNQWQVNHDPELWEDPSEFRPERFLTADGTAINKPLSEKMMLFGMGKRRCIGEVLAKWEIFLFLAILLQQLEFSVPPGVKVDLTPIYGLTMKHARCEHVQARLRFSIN
# Description: as §1
# CYP3A4m = molecular target: T4, CYP3A4m (Homo sapiens, UniProt P08684); test: as above; assay type: in vitro ADME; settings: probe Midazolam, single point method
# T4 construct: from tissue; host or cells: human liver microsomes
# Description: as §1
# CYP2C6 = CYP2C6 (Homo sapiens, UniProt P10635); test: as above; assay type: in vitro ADME; settings: single point method
# Description: as §1
# CYP2C19 = molecular target: T5, CYP2C19 (Homo sapiens, UniProt P33261); test: as above; assay type: in vitro ADME; settings: probe (S)-Mephenytoin, single point method
# T5 construct: from tissue; host or cells: human liver microsomes
# Description: as §1
# CYP3A4t = molecular target: T6, CYP3A4t (Homo sapiens, UniProt P08684); test: as above; assay type: in vitro ADME; settings: probe Testosterone, single point method
# T6 construct: from tissue; host or cells: human liver microsomes
# Description: as §1
# T1 sequence (Q02750 whole entry): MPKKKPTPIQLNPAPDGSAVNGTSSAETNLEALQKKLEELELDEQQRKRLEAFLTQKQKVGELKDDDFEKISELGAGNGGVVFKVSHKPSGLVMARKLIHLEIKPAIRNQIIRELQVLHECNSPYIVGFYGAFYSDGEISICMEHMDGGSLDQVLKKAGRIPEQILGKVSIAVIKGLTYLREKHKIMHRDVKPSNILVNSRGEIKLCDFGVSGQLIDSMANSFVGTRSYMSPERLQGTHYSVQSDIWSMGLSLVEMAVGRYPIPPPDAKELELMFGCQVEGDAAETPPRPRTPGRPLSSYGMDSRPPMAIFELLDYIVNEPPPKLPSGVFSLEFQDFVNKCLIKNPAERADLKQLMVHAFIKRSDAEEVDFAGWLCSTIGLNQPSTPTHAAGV
# T2 sequence (P11712 whole entry): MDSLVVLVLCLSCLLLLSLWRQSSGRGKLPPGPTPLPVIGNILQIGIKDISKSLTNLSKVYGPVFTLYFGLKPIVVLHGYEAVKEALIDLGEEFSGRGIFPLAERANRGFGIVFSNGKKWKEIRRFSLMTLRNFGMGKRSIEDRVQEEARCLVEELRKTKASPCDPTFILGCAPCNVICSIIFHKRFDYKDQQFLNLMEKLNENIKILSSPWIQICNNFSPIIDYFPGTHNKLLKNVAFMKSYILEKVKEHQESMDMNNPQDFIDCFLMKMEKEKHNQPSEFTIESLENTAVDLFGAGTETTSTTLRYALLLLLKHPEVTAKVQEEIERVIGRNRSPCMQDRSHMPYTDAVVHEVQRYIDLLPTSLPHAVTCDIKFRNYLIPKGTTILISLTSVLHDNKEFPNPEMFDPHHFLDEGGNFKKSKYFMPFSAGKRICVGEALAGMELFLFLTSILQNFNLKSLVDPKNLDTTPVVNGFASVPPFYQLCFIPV
# T6 sequence (P08684 whole entry): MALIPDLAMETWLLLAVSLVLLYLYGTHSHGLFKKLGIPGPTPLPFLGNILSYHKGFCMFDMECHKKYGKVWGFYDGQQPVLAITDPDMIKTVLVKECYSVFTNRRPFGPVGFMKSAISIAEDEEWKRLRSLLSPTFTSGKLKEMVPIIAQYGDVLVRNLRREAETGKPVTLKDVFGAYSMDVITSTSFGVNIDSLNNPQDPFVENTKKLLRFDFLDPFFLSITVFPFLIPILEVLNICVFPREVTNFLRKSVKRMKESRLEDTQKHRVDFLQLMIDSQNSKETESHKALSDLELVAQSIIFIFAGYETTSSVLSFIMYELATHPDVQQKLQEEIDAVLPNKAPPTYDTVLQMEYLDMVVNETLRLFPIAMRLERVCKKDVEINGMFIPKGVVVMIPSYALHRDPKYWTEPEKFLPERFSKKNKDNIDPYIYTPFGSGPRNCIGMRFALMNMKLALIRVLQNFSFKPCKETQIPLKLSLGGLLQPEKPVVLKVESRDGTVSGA
# T4 sequence (P08684 whole entry): as above
# T5 sequence (P33261 whole entry): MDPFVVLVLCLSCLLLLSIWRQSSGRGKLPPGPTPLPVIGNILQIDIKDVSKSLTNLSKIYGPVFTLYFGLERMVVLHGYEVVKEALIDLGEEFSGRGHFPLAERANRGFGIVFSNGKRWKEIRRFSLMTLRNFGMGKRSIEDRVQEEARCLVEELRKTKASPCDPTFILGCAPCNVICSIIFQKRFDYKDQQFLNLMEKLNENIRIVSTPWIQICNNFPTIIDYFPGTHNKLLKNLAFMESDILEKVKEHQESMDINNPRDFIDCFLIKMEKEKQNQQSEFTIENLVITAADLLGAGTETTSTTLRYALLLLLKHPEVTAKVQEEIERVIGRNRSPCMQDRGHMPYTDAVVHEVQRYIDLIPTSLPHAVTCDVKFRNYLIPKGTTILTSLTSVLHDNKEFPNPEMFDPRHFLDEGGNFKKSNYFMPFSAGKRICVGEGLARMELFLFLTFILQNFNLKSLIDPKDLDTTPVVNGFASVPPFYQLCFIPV
# Sequence of CYP2C6 (P10635 whole entry): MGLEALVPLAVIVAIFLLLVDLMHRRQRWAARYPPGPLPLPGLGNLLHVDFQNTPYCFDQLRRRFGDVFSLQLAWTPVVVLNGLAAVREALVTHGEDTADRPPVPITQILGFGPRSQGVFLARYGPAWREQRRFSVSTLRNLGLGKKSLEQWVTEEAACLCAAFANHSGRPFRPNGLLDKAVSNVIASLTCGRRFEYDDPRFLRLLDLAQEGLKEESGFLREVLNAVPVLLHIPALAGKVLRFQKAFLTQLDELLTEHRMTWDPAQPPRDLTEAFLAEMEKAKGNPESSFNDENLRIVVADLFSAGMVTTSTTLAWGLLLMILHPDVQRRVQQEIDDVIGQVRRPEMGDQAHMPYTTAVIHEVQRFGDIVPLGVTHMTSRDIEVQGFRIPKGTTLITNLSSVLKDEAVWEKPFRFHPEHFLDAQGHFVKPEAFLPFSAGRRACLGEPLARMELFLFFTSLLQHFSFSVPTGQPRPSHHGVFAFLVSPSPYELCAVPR
IC50 (Colo205 cell),IC50 [1],IC50 (CYP2C9),IC50 (CYP1A2),IC50 (CYP3A4m),IC50 (CYP2C6),IC50 (CYP2C19),IC50 (CYP3A4t),Compound
0.8 nM,4 nM,> 50000 nM,> 10000 nM,> 50000 nM,> 50000 nM,> 10000 nM,> 50000 nM,"CC(=O)Nc1cccc(Oc2cc(=O)n(C)c(Nc3ccc(I)cc3F)c2C(N)=O)c1C [Example 4, 4-(3-acetamido-2-methylphenoxy)-2-((2-fluoro-4-iodophenyl)amino)-1-methyl-6-oxo-1,6-dihydropyridine-3-carboxamide]"
1 nM,5.9 nM,–,–,–,–,–,–,"Cc1ccc(F)cc1Oc1cc(=O)n(C)c(Nc2ccc(I)cc2F)c1C(N)=O [Example 25, 4-(5-fluoro-2-methylphenoxy)-2-((2-fluoro-4-iodophenyl)amino)-1-methyl-6-oxo-1,6-dihydropyridine-3-carboxamide]"
–,6 nM,> 10000 nM,> 10000 nM,> 10000 nM,> 10000 nM,> 10000 nM,> 10000 nM,"Cc1cncc(Oc2cc(=O)n(C)c(Nc3ccc(I)cc3F)c2C(N)=O)c1 [Example 30, 2-((2-fluoro-4-iodophenyl)amino)-1-methyl-4-((5-methylpyridin-3-yl)oxy)-6-oxo-1,6-dihydropyridine-3-carboxamide]"
4 nM,5.5 nM,–,–,–,–,–,–,"Cc1cc(Oc2cc(=O)n(C)c(Nc3ccc(I)cc3F)c2C(N)=O)ccn1 [Example 32, 2-((2-fluoro-4-iodophenyl)amino)-1-methyl-4-((2-methylpyridin-4-yl)oxy)-6-oxo-1,6-dihydropyridine-3-carboxamide]"

# Reference: patent US10064848B2, “Pyridic ketone derivatives, method of preparing same, and pharmaceutical application thereof” (Shanghai Hengrui Pharmaceutical Co., Ltd., priority 2013, dated 2018)
